In this experiment the target is recombinant HCV NS5B (HCV RNA-dependent RNA polymerase) (Hepatitis C virus genotype 1b, UniProt P26663). Put plainly: biochemical.
The mark [1] stands for this setting: HCV polymerase activity, list of compounds of Example 27, read-out: IC50 (polymerase activity).
Setting [2] is: related polymerase activity (Example 27 list), read-out: IC50.

Molecules are shown by their SMILES. Like-named read-outs stand apart in the source and are kept apart here.

Sequence of recombinant HCV NS5B (HCV RNA-dependent RNA polymerase) (P26663 2420-3010 limits assumed): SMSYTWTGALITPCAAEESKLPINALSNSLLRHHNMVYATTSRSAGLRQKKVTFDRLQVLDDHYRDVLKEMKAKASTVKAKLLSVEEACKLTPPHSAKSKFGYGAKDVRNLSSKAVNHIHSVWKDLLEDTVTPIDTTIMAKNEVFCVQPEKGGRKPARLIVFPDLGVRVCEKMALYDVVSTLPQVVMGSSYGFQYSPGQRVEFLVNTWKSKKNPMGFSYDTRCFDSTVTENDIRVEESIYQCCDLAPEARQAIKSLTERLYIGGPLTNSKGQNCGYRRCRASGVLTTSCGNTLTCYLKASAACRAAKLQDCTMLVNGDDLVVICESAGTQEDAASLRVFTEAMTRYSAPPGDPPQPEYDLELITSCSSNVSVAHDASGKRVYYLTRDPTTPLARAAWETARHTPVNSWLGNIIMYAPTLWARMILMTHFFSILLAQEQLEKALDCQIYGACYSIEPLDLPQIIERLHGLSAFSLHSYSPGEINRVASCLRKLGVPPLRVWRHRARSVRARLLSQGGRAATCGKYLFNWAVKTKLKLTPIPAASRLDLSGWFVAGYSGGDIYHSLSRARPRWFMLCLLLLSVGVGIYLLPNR

As a reminder, the IC50 is the concentration that gives 50% inhibition. In the case of `CCC1CCC(C(=O)N(c2cc(-c3ccccc3)sc2C(=O)O)C(C)C)CC1` (centres unmarked) [Compound 531, 3-[(4-ETHYL-CYCLOHEXANECARBONYL)- ISOPROPYL-AMINO]-5-PHENYL- THIOPHENE-2-CARBOXYLIC ACID], under setting [1], the IC50 is less than 5 µM.
Consider `CN(C(=O)c1ccc(F)cc1F)c1cc(-c2ccccc2)sc1C(=O)O` [Compound 78, 3-[(2,4-DIFLUORO-BENZOYL)-METHYL-AMINO]-5-PHENYL-THIOPHENE-2-CARBOXYLIC ACID], for which the IC50 under setting [2] was in the range of 5 to 20 µM.
Consider `O=C(O)c1sc(-c2ccccc2)cc1N(C(=O)c1ccc(Cl)cc1Cl)C1CCC(C(=O)O)C1` (centres unmarked) [Compound 548, 3-[(3-CARBOXY-CYCLOPENTYL)-(2,4- DICHLORO-BENZOYL)-AMINO]-5- PHENYL-THIOPHENE-2-CARBOXYLIC ACID], for which the IC50 under setting [1] is less than 5 µM.
On the same count and under the same terms, the result for `CC(C)N(C(=O)C1CCC(Cl)CC1)c1cc(-c2ccccc2)sc1C(=O)O` (centres unmarked) [Compound 532, 3-[(4-CHLORO- CYCLOHEXANECARBONYL)-ISOPROPYL- AMINO]-5-PHENYL-THIOPHENE-2- CARBOXYLIC ACID] reads less than 5 µM.
For the compound `CC(=O)c1ccc(-c2cc(NS(=O)(=O)c3ccc(Cl)cc3)c(C(=O)O)s2)cc1` [Compound 238, 5-(4-ACETYL-PHENYL)-3-(4-CHLORO-BENZENESULFONYLAMINO)-THIOPHENE-2-CARBOXYLIC ACID], the IC50 under setting [2] is less than 5 µM.
Same read-out and setting: the result for `CC(=O)c1ccc(-c2cc(NS(=O)(=O)c3ccccc3C)c(C(=O)O)s2)cc1` [Compound 166, 5-(4-ACETYL-PHENYL)-3-(TOLUENE-2-SULFONYLAMINO)-THIOPHENE-2-CARBOXYLIC ACID] reads less than 5 µM; that for `CC(C)CN(C(=O)c1ccc(Cl)cc1Cl)c1cc(-c2ccccc2)sc1C(=O)O` [Compound 204, 3-[(2,4-DICHLORO-BENZOYL)-ISOBUTYL-AMINO]-5-PHENYL-THIOPHENE-2-CARBOXYLIC ACID], less than 5 µM; that for `Cc1ccc(S(=O)(=O)Nc2cc(-c3ccsc3)sc2C(=O)O)cc1` [Compound 11, 4-(TOLUENE-4-SULFONYLAMINO)-[2,3′]BITHIOPHENYL-5-CARBOXYLIC ACID], 5 to 20 µM.
Regarding `CC(C(=O)O)N(C(=O)c1ccc(Cl)cc1Cl)c1cc(-c2ccccc2)sc1C(=O)O` (centres unmarked) [Compound 299, 3-[(1-CARBOXY-ETHYL)-(2,4-DICHLORO- BENZOYL)-AMINO]-5-PHENYL- THIOPHENE-2-CARBOXYLIC ACID], the IC50 under setting [2] was less than 5 µM.
With `O=C(O)c1sc(-c2ccccc2)cc1N(Cc1ccc(Cl)cc1)C(=O)C1CCC1` [Compound 461, 3-[(4-CHLORO-BENZYL)- CYCLOBUTANECARBONYL-AMINO]-5- PHENYL-THIOPHENE-2-CARBOXYLIC ACID], the IC50 under setting [1] was in the range of 5 to 20 µM.
For `CC(C)(C)OC(=O)N1CCCC(N(C(=O)c2ccc(Cl)cc2Cl)c2cc(-c3ccccc3)sc2C(=O)O)C1` (centres unmarked) [Compound 511, 3-[(2-CARBOXY-5-PHENYL-THIOPHEN-3- YL)-(2,4-DICHLORO-BENZOYL)-AMINO]- PIPERIDINE-1-CARBOXYLIC ACID #TERT!-BUTYL ESTER], under setting [1], the IC50 is less than 5 µM.
Take `CCN(C(=O)c1ccc(C)cc1)c1cc(-c2ccccc2)sc1C(=O)O` [Compound 185, 3-[ETHYL-(4-METHYL-BENZOYL)-AMINO]-5-PHENYL-THIOPHENE-2-CARBOXYLIC ACID]: the IC50 under setting [2] was less than 5 µM.
Same read-out and setting: the result for `Cc1ccc(S(=O)(=O)Nc2cc(-c3ccc(C(N)=O)cc3)sc2C(=O)O)cc1` [Compound 259, 5-(4-CARBAMOYL-PHENYL)-3-(TOLUENE-4-SULFONYLAMINO)-THIOPHENE-2-CARBOXYLIC ACID] reads less than 5 µM; that for `O=C(O)c1sc(-c2ccccc2)cc1NS(=O)(=O)c1cccc(F)c1` [Compound 49, 3-(3-FLUORO-BENZENESULFONYLAMINO)-5-PHENYL-THIOPHENE-2-CARBOXYLIC ACID], less than 5 µM.
On to `Cc1ccc(S(=O)(=O)N(c2cc(-c3ccccc3)sc2C(=O)O)C(C)C)c(C)c1` [Compound 240, 3-[(2,4-DIMETHYL-BENZENESULFONYL)-ISOPROPYL-AMINO]-5-PHENYL-THIOPHENE-2-CARBOXYLIC ACID], for which the IC50 under setting [2] was 5 to 20 µM.
Take `O=C(O)c1sc(-c2ccccc2)cc1NS(=O)(=O)c1cc(F)ccc1F` [Compound 53, 3-(2,5-DIFLUORO-BENZENESULFONYLAMINO)-5-PHENYL-THIOPHENE-2-CARBOXYLIC ACID]: the IC50 under setting [2] was less than 5 µM.
On the same count and under the same terms, the result for `Cc1ccc(C)c(S(=O)(=O)Nc2cc(-c3ccc(F)cc3)sc2C(=O)O)c1` [Compound 107, 3-(2,5-DIMETHYL-BENZENESULFONYLAMINO)-5-(4-FLUORO-PHENYL)-THIOPHENE-2-CARBOXYLIC ACID] reads less than 5 µM; that for `Cc1ccc(C(=O)N(Cc2ccccc2C)c2cc(-c3ccccc3)sc2C(=O)O)cc1` [Compound 343, 3-[(4-METHYL-BENZOYL)-(2-METHYL- BENZYL)-AMINO]-5-PHENYL-THIOPHENE- 2-CARBOXYLIC ACID], less than 5 µM; that for `Cc1ccccc1S(=O)(=O)Nc1cc(-c2ccc(C(=O)O)cc2)sc1C(=O)O` [Compound 248, 5-(4-CARBOXY-PHENYL)-3-(TOLUENE-2-SULFONYLAMINO)-THIOPHENE-2-CARBOXYLIC ACID], less than 5 µM.
Take `COc1cc(C)c(S(=O)(=O)Nc2cc(-c3ccccc3)sc2C(=O)O)c(C)c1C` [Compound 22, 3-(4-METHOXY-2,3,6-TRIMETHYL-BENZENESULFONYLAMINO)-5-PHENYL-THIOPHENE-2-CARBOXYLIC ACID]: the IC50 under setting [2] was less than 5 µM.
The same measure, in the same setting: the result for `Cc1cc(Cl)ccc1C(=O)N(c1cc(-c2ccccc2)sc1C(=O)O)C(C)C` [Compound 234, 3-[(4-CHLORO-2-METHYL-BENZOYL)-ISOPROPYL-AMINO]-5-PHENYL-THIOPHENE-2-CARBOXYLIC ACID] reads less than 5 µM.
Take `CC(C)CC(=O)N(Cc1cccc(Cl)c1)c1cc(-c2ccccc2)sc1C(=O)O` [Compound 479, 3-[(3-CHLORO-BENZYL)-(3-METHYL- BUTYRYL)-AMINO]-5-PHENYL- THIOPHENE-2-CARBOXYLIC ACID]: under setting [1], the IC50 was less than 5 µM.
With `Cc1ccccc1S(=O)(=O)Nc1cc(-c2ccc(C(F)(F)F)cc2)sc1C(=O)O` [Compound 88, 3-(TOLUENE-2-SULFONYLAMINO)-5-(4-TRIFLUOROMETHYL-PHENYL)-THIOPHENE-2-CARBOXYLIC ACID], the IC50 under setting [2] is less than 5 µM.
On the same count and under the same terms, the result for `Cc1cc(N(C(=O)c2ccc(Cl)cc2Cl)C(C)C)c(C(=O)O)s1` [Compound 382, 3-[(2,4-DICHLORO-BENZOYL)- ISOPROPYL-AMINO]-5-METHYL- THIOPHENE-2-CARBOXYLIC ACID] reads less than 5 µM.
Same read-out and setting: the result for `Cc1ccccc1S(=O)(=O)Nc1cc(-c2ccc(OC(F)(F)F)cc2)sc1C(=O)O` [Compound 60, 3-(TOLUENE-2-SULFONYLAMINO)-5-(4-TRIFLUOROMETHOXY-PHENYL)-THIOPHENE-2-CARBOXYLIC ACID] reads less than 5 µM.
Consider `CC(C)CC(=O)N(Cc1ccc(C(F)(F)F)cc1)c1cc(-c2ccccc2)sc1C(=O)O` [Compound 412, 3-[(3-METHYL-BUTYRYL)-(4- TRIFLUOROMETHYL-BENZYL)-AMINO]-5- PHENYL-THIOPHENE-2-CARBOXYLIC ACID], for which the IC50 under setting [1] lay within 5 to 20 µM.
As for `O=C(O)c1sc(-c2ccccc2)cc1N(C(=O)c1ccc(Cl)cc1Cl)C(CO)CO` [Compound 518, 3-[(2,4-DICHLORO-BENZOYL)-(2- HYDROXY-1-HYDROXYMETHYL-ETHYL)- AMINO]-5-PHENYL-THIOPHENE-2- CARBOXYLIC ACID], under setting [1], the IC50 was less than 5 µM.
On the same count and under the same terms, the result for `CCCC(=O)N(Cc1ccc(F)cc1F)c1cc(-c2ccccc2)sc1C(=O)O` [Compound 496, 3-[BUTYRYL-(2,4-DIFLUORO-BENZYL)- AMINO]-5-PHENYL-THIOPHENE-2- CARBOXYLIC ACID] reads less than 5 µM.
Same read-out and setting: the result for `CCCC(=O)N(Cc1ccccc1Cl)c1cc(-c2ccccc2)sc1C(=O)O` [Compound 447, 3-[BUTYRYL-(2-CHLORO-BENZYL)- AMINO]-5-PHENYL-THIOPHENE-2- CARBOXYLIC ACID] reads less than 5 µM.
In the case of `O=C(O)c1sc(-c2ccccc2)cc1NS(=O)(=O)c1ccc([N+](=O)[O-])cc1` [Compound 148, 3-(4-NITRO-BENZENESULFONYLAMINO)-5-PHENYL-THIOPHENE-2-CARBOXYLIC ACID], the IC50 under setting [2] lay within 5 to 20 µM.
For the compound `C=CCN(C(=O)Cc1ccc(Cl)cc1Cl)c1cc(-c2ccccc2)sc1C(=O)O` [Compound 348, 3-{ALLYL-[2-(2,4-DICHLORO-PHENYL)- ACETYL]-AMINO}-5-PHENYL-THIOPHENE- 2-CARBOXYLIC ACID], under setting [2], the IC50 lay within 5 to 20 µM.
In the case of `Cc1cc(Br)ccc1S(=O)(=O)Nc1cc(-c2ccccc2)sc1C(=O)O` [Compound 220, 3-(4-BROMO-2-METHYL-BENZENESULFONYLAMINO)-5-PHENYL-THIOPHENE-2-CARBOXYLIC ACID], the IC50 under setting [2] was less than 5 µM.
For the compound `CCCC(=O)N(Cc1ccc(C(F)(F)F)cc1)c1cc(-c2ccccc2)sc1C(=O)O` [Compound 415, 3-[BUTYRYL-(4-TRIFLUOROMETHYL- BENZYL)-AMINO]-5-PHENYL-THIOPHENE- 2-CARBOXYLIC ACID], the IC50 under setting [1] lay within 5 to 20 µM.
For the compound `Nc1ccccc1S(=O)(=O)Nc1cc(-c2ccccc2)sc1C(=O)O` [Compound 146, 3-(2-AMINO-BENZENESULFONYLAMINO)-5-PHENYL-THIOPHENE-2-CARBOXYLIC ACID], under setting [2], the IC50 is less than 5 µM.
Consider `COc1ccc(-c2cc(NS(=O)(=O)c3ccc(C)cc3)c(C(N)=O)s2)cc1` [Compound 565, 5-(4-METHOXY-PHENYL)-3-(TOLUENE-4- SULFONYLAMINO)-THIOPHENE-2- CARBOXYLIC ACID AMIDE], for which, under setting [1], the IC50 is 5 to 20 µM.
Turning to `Cc1ccccc1S(=O)(=O)Nc1cc(-c2ccc(F)c(Cl)c2)sc1C(=O)O` [Compound 91, 5-(3-CHLORO-4-FLUORO-PHENYL)-3-(TOLUENE-2-SULFONYLAMINO)-THIOPHENE-2-CARBOXYLIC ACID], the IC50 under setting [2] lay in the range of 5 to 20 µM.
With `CC(C)N(C(=O)c1ccc(Cl)cc1[N+](=O)[O-])c1cc(-c2ccccc2)sc1C(=O)O` [Compound 329, 3-[(4-CHLORO-2-NITRO-BENZOYL)- ISOPROPYL-AMINO]-5-PHENYL- THIOPHENE-2-CARBOXYLIC ACID], the IC50 under setting [2] is less than 5 µM.
As to `CC(C)CC(=O)N(Cc1ccc(F)cc1F)c1cc(-c2ccccc2)sc1C(=O)O` [Compound 486, 3-[(2,4-DIFLUORO-BENZYL)-(3-METHYL- BUTYRYL)-AMINO]-5-PHENYL- THIOPHENE-2-CARBOXYLIC ACID], the IC50 under setting [1] was 5 to 20 µM.

(Values after patent US6881741B2 (ViroChem Pharma Inc., priority 2001, dated 2005).)
